This is an account of results in patent US11859203B2, “Cell culture methods” (UCB BIOPHARMA SRL, priority 2017, dated 2024).

What all share (format): cell-based, Chinese Hamster
The subject of experiment [1] is CHO-DG44 cells producing a multispecific antibody derivative (cell line 2). In words: Fed-batch shake flask culture with cysteine/cystine derivatives, cell line 2 (Example 2). The following applies: 50% replacement; day 14; cell line 2, shake flask. Here is the method:
The ability of cysteine/cystine derivatives to reduce color and acidic species of a recombinant protein preparation in cell culture was evaluated using another antibody-producing cell line, cell line 2. For this experiment a scale-down model in shake flask was used. CHO-DG44 cells producing a multispecific antibody derivative were inoculated in 100 mL of basal media at a seeding density of 0.35×10^6 cells/mL. The shake flask vessels were 250 mL shake flasks (corning) disposed in an agitated incubator (Infors) protected from light. The cells were cultivated for 14 days at 36.8° C. with 80% of humidity. The cell cultures were agitated at 140 rpm at the beginning of the process. The agitation was increased during the process progressively to reach 250 rpm to maintain a DO % at 40% in the shake flask, as is it done in the 2 L bioreactor process. […]
The cysteine present in the Feed was replaced by different cysteine and cystine derivatives with a replacement ratio of 50% equimolar (Table 1). […] Osmolality was daily monitored using an osmometer from Advanced instrument. Off line pH, dissolved O2 and dissolved CO2 were daily monitored using a Nova Biomedical Phox (Nova biomedical). Metabolites concentrations were daily determined using a CedexBioHT system (Roche). Viable cell concentration and cell viability were measured daily using a ViCell automated cell counter (Beckman Coulter). […]

Experiment [2] concerns CHO-DG44 cells from cell line 1. In words: Fed-batch 2 L bioreactor culture with cysteine/cystine derivatives, cell line 1 (Example 3). As to conditions: 50% replacement, cell line 1, 2 L bioreactor. Here is the method: (§1) The ability of cysteine/cystine derivatives to reduce color and acidic species of a recombinant protein preparation produced in cell culture was evaluated in a bioreactor for two cell lines. This model is more representative of the large-scale production than the shake flask due to the geometry and additional control. CHO-DG44 cells from cell line 1 and 2 were inoculated in 1300 mL of basal media at a seeding density of 0.35×10^6 cells/mL in 2 L stirred bioreactor (Sartorius). The cells were cultivated during 14 days in fed-batch mode. The cell cultures were agitated at 280 rpm and the DO was maintained at 40%. The cell culture was maintained at pH 7.0±0.2 with an automatic CO2 sparging regulation. Cells were cultured in a fed-batch mode with bolus addition of Feed every day of culture. The basal media contained 0.04 mmol/L of cysteine+0.38 mmol/L of cystine. The Feed contained 153.3 mmol/L of cystine. Over the entire 14-day production phase, the total volume of Feed added corresponded to 5.7% (w/w) of the culture start volume for cell line 1 and to 3.1% (w/w) of the culture start volume for cell line 2.
(§2) The cysteine present in the Feed was replaced by different cysteine- and cystine derivatives at different percentages as presented in Table 2. A condition with only 50% of cysteine was added to test whether the improvements observed were due to the cysteine derivative or to the reduction of cysteine only. Osmolality was daily monitored using an osmometer from Advanced instrument. Off line pH, dissolved O2 and dissolved CO2 were daily monitored using a Nova Biomedical Phox (Nova biomedical). Metabolites concentrations were daily determined using a CedexBioHT system (Roche). Viable cell concentration and cell viability were measured daily using a ViCell automated cell counter (Beckman Coulter). The cell culture fluid was collected daily by centrifuging 1 mL of cell culture fluid for determination of antibody titer by HPLC prot A (waters) or using protein-L Octet measurement (Pall). At the end of the 14 days of culture, the cell culture fluid was harvested by centrifugation. The supernatant was then purified using a protein-A or L affinity chromatography (GE). The protein-A or L eluates were used for the molecular weight determination using UPLC size exclusion (Waters) and for the charge variants determination using isocapillary focusing (PROTEINSIMPLE iCE3). Another part of the protein-A eluates (only from cell line 1) was concentrated to 40 mg/mL using Amicon centricon centrifugal filter devices (Millipore). Color intensity of the concentrated antibody composition was measured in the concentrated protein A eluates using a spectrophotometer by transmission (UltrascanPro) and compared to the CIE (commission internationale de l'éclairage) scale. The numerical results were normalized to the concentration of 40 mg/mL.

Experiment [3] concerns CHO-DG44 cells from cell line 2. In words: Fed-batch 2 L bioreactor culture with cysteine/cystine derivatives, cell line 2 (Example 3). The following applies: 50% replacement; cell line 2, 2 L bioreactor. Here is the method:
as §1, §2

The subject of the next experiment is cell line 1. In words: Reproducibility in 2 L bioreactor, cell line 1, average of data sets 1 and 2 (Example 4). As to conditions: 50% replacement. On the procedure: as §1, §2
The reproducibility of the results was evaluated in bioreactor with cell line 1. The experiments of Example 3 were repeated with an additional control and a bioreactor with 50% S-sulfocysteine 50% Cysteine Feed. The data from the two experiments were analyzed to confirm the effect previously observed with cysteine/cystine derivatives.

For experiment [4], the system named is CHO-DG44 cells from cell line 1. In words: Fed-batch Ambr15 mini bioreactor culture, different replacement levels, cell line 1 (Example 5). As to conditions: at optimum, around 70% of replacement. On the procedure:
We tested different concentrations of cysteine/cystine derivatives on the improvement on the APG level of a recombinant protein preparation produced in cell culture cultivated in mini bioreactors. CHO-DG44 cells from cell line 1 were inoculated in 12 mL basal media at a seeding density of 0.35×10^6 cells/mL in Ambr15 bioreactors (Sartorius). The cells were cultivated in fed-batch mode during 14 days. The DO was maintained at 40% and the pH was maintained 7.0±0.2 with an automatic CO2 sparging regulation. Viable cell concentration and cell viability were measured daily using a ViCell automated cell counter (Beckman Coulter). Cells were cultured in a fed-batch mode with a daily bolus addition of Feed. The basal media contained 0.04 mmol/L cysteine+0.38 mmol/L cystine. The Feed contained 153.3 mmol/L of cystine. Over the entire 14-day production phase, the total volume of added Feed corresponded to 4.7% (v/v) of the culture start volume.
Different percentages of cysteine present in the Feed was replaced by different cysteine- and cystine analogs. Table 4 provides an overview of different percentages tested and their equivalence in molar ratio relative to cysteine or cystine. E.g. for N-Acetyl-L-cysteine 10% means that 10% molar amount of cysteine equivalent has been replaced by 10% molar amount of N-Acetyl-L-cysteine; for N,N′-Diacetyl-L-cystine, 10% means that 10 molar amount of cystine equivalent has been replaced with 10% molar amount of N,N′-Diacetyl-L-cystine. At the end of the 14 days of culture, the cell culture fluid was harvested by centrifugation. The supernatant was then purified using a protein-A affinity chromatography (GE). The protein-A eluates were used for the charge variants determination using isocapillary focusing (PROTEINSIMPLE iCE3).

SMILES strings stand for the structures.

As to `CC(=O)N[C@@H](CS)C(=O)O` [N-acetyl-L-cysteine, N-Acetyl-L-cysteine], the “decrease on acidic variants level compared to control” value in experiment [1] worked out at 14.5%. In experiment [2], the “decrease of acidic species level compared to control” value was 10% and the main species level entry is on record as “increase of main species”. For the same molecule, the “decrease of the b value level (color intensity) compared to control” value in experiment [2] (40 mg/mL) is listed as 13%. Further, in experiment [3], the “decrease of acidic species level compared to control” value is given as 13% and the main species level entry is reported as “increase of main species”. Also, the specific productivity entry with cell line 1 (compared to 50% cysteine feed) is “did not impact the productivity”. Besides, in the experiment with cell line 1 (data sets 1 and 2 average), the “average decrease of acidic species level compared to control” value was 10%, the “average decrease of b value level (color intensity) compared to control” value came to 13%, the “decrease in antibody titer compared to the controls average” value stood at 10% and the main species level entry is “increase of main species”. In addition, the “cell growth (VCC) compared to control” value in the experiment on cell line 1 (from day 9, 2 L bioreactor, data sets 1 and 2) is “higher VCCs than the control conditions”. Besides, the “decrease of acidic species” value in experiment [4] came out at 12.5%.
